Laboratory results: US20050222100A1 (priority 2002, published 2005)

Test: Pilot study: irregular vaginal bleeding
Assay type: in vivo, post-menopausal women
Conditions: 2.5 mg tibolone per day added to 20 mg tamoxifen per day
Excerpt: The women, all below the age of 65 years, were postmenopausal for at least three years at the time of diagnosis. Their follicle stimulating hormone (FSH) levels were greater than 40 IU/L and their estradiol (E2) levels were below 20 pg/mL.

In the case of `C#C[C@]1(O)CC[C@H]2[C@@H]3[C@H](C)CC4=C(CCC(=O)C4)[C@H]3CC[C@@]21C` [Tibolone, (7α, 17α)-17-hydroxy-7-methyl-19-nor-17-pregn-5(10)-en-20-yn-3-one], the “effect on irregular bleeding” value was “minimal effect”.
